This passage reports IC50 results from article PMC7191558, “Use of BODIPY-Labeled ATP Analogues in the Development and Validation of a Fluorescence Polarization-Based Assay for Screening of Kinase Inhibitors” (ACS Omega, 2020).

For this assay, the target named is T1, Protein Kinase A catalytic subunit (PKA) (Bos taurus, UniProt P00517).
T1 construct: gene PRKACA; catalytic subunit (from bovine heart, Merck)
Put plainly: fluorescence polarization competition with BODIPY FL ATP-γ-S. The assay is classed as binding. In general terms: Polarisation of emitted light reports the rotation of a fluorescent probe.

For orientation: IC50 means the midpoint of a concentration-inhibition curve. Read a high IC50 as a need for much substance. Molecule `CC1CNCCN1S(=O)(=O)c1cccc2cnccc12` (stereo not shown) [H7] gave an IC50 of roughly 1.13 mM.
